Experimental findings from article PMC8360061, “Search for the Active Ingredients from a 2‐Aminothiazole DMSO Stock Solution with Antimalarial Activity” (Chemmedchem, 2021) are described below.

Where two headings read alike, the source gives them in different places. Some results are limits rather than exact numbers.

The subject of data set [1] is Plasmodium falciparum drug-sensitive NF54. The data set can be described thus: Antimalarial assay, [3H]hypoxanthine incorporation. The data set is classed as cell-based. Conditions: Plasmodium falciparum. As to the method:
(§1) Due to the nature of the study, some decomposition samples w ere only tested once and thus, for some formal standard error, […]
For the final purified compounds, replicates were measured and standard deviation was calculated at least from two replicates.
1.2 General Procedure for Antimalarial Assay
Plasmodium falciparum drug-sensitive NF54 (airport strain from The Netherlands, provided by F. Hoffmann-La Roche Ltd) was cultivated in a variation of the medium consisting of RPMI 1640 supplemented with 0.5% ALBUMAX® II, 25 mM Hepes, 25 mM NaHCO3 (pH 7.3), 0.36 mM hypoxanthine, and 100 μg/mL neomycin, as previously described.[4,5] Human erythrocytes served as host cells.
Cultures were maintained in an atmosphere of 3% O2, 4% CO2, and 93% N2 in humidified modular chambers at 37 °C. Compounds were dissolved in MeOH (10 mM), diluted in hypoxanthine-free culture medium and titrated in duplicates over a 64-fold range in 96 well plates. Infected erythrocytes (1.25% final hematocrit and 0.3% final parasitemia) were added into the wells. After 48 h incubation, 0.25 μCi of [3H]hypoxanthine was added per well and plates were incubated for an additional 24 h. Parasites were harvested onto glass-fiber filters and radioactivity was counted using a Betaplate liquid scintillation counter (Wallac, Zurich). Chloroquine […]
The results were recorded and expressed as a percentage of the untreated controls. Fifty percent inhibitory concentrations (IC50) were estimated by linear interpolation.[6] […]

Data set [2] deals with PfIspE (Plasmodium falciparum, UniProt Q8I470). The data set can be described thus: PfIspE enzymatic assay (coupled to PK/LDH, NADH oxidation at 340 nm). The data set is classed as biochemical. The method, then: (§2) Firstly, we performed a temperature‐dependent decomposition study of compound 1 at 10 mM concentration in DMSO at room temperature (RT), +4 °C and −20 °C (SI, Section 2.3). […] Besides visual inspection of the colour changes of the test sample (see Table 2), the decomposition was monitored by HRMS and NMR spectroscopy. […] Furthermore, all three samples were tested for their inhibitory activity against PfIspE after the incubation period. […] In the IspE assay, the activity of the target enzyme is coupled to the oxidation of NADH (which can be followed spectrophotometrically at 340 nm) via a cascade of the auxiliary enzymes pyruvate kinase and lactate dehydrogenase (PK/LDH).[10] […] Three samples of compound 1 were tested in PK/LDH assay (Table 2).
(§3) Another approach to address this issue is to perform the IspE assay with one or several orthologues of PfIspE. […] The IspE assay setup was identical for both Pf and EcIspE orthologs except for the target enzyme used. One of the setup requirements was that the enzymatic activity of the auxiliary enzymes PK/LDH exceeded the activity of the target enzyme IspE not less than a factor of ten.[10] We investigated, if the inhibition of the auxiliary enzymes may substantially influence the IC50 values obtained from the coupled IspE assay.
(§4) 1.1 General Procedure for Enzymatic Assay
(§5) The cloning, expression and purification of Plasmodium falciparum[1] and Escherichia coli[2,3] and their subsequent assays followed the previously reported procedures .[1] In some specified cases, the tested compound was dissolved in methanol or acetonitrile for the assay .
as §1
(§6) For the final purified compounds, replicates were measured and standard deviation was calculated at least from two replicates. […]
(§7) 2.) Decomposition Study Procedure
(§8) All reagents and solvents were of commercial quality and used without further purification.

The target of data set [3] is T1, EcIspE (Escherichia coli, UniProt P62615).
T1 construct: made in house
The data set can be described thus: EcIspE enzymatic assay (coupled to PK/LDH). The note with it: fractions of second purification. The data set is classed as biochemical.
Text: as §3, §4, §5, §1, §6, §7, §8
Low resolution mass analytics and purity controls were carried out using an Ultimate 3000-ISQ liquid-chromatography mass spectrometry (LCMS) system (Thermo Fisher […]

Data set [4] is described as follows: Decomposition study of stock solutions (HRMS, NMR). The data set is classed as physicochemical. The note with it: 10 mM DMSO stock at RT, after one day. The method, then: Firstly, we performed a temperature‐dependent decomposition study of compound 1 at 10 mM concentration in DMSO at room temperature (RT), +4 °C and −20 °C (SI, Section 2.3). After seven days, 64 % of the sample stored at RT had decomposed (SI, Table S1). Besides visual inspection of the colour changes of the test sample (see Table 2), the decomposition was monitored by HRMS and NMR spectroscopy. […] Furthermore, all three samples were tested for their inhibitory activity against PfIspE after the incubation period. […] This fact correlated with the degree of chemical transformation of compound 1 (Table S1). In the IspE assay, the activity of the target enzyme is coupled to the oxidation of NADH (which can be followed spectrophotometrically at 340 nm) via a cascade of the auxiliary enzymes pyruvate kinase and lactate dehydrogenase (PK/LDH).[10] Therefore, we next confirmed, whether the effects observed in the IspE assay are due to inhibition of the target enzyme or of the auxiliary enzymes. Three samples of compound 1 were tested in PK/LDH assay (Table 2).
Secondly, we analysed if spontaneous chemical transformation of compound 1 may depend on the solvent used for the preparation of its stock solutions. We incubated 10 mM stock preparations of compound 1 in DMSO, acetonitrile (ACN) and methanol (MeOH) at RT. Aliquots were taken during 16 days of incubation and tested against the enzyme PfIspE (Table 3). […] For further decomposition incubation of compound 1, only DMSO was used as solvent.
2.3 Temperature-Dependent Study
Compound 1 was dissolved in DMSO to afford 10 mM stock solution, in the scale of 3.65 mg in 1 mL. Three aliquots were prepared and one each was stored inside a light -protecting box at different temperatures: room temperature (RT), +4 °C and –20 °C. Samples were only taken to RT for the minimum time required for sampling. Samples were further d iluted with acetonitrile to 10 µM (1:1000) for HRMS analysis. For calibration, a fresh stock solution of the compound 1 was prepared shortly before the analysis. The concentration range used for the calibration was from 10 µM to 20 nM, including 10 samples with 1:1 dilutions starting from the highest concentration (Appendix I). In all of the calibration points and samples, diphenhydramine ( m/z: 256.16907 [M+H]+) was included as an internal standard at the concentration of 500 nM. The results were analysed using Thermo Xcalibur Quan Browser. Similarly, three NMR samples of compound 1 were prepared in DMSO-d6 and each stored at different temperatures; RT, +4 °C and –20 °C, (Figure S8).
Table S1. Summary of the decomposition of compound 1 at different temperatures with the corresponding enzymatic activities measured after three months.
The Percentage of Compound 1 Left After Degradation after 3 months of decomposition[b] Temperature Day 7 1 month 2 months PfIspE IC50 EcIspE IC50 PK/LDH IC50 […]
[a] [b] Errors given as formal standard error. n.d.: not determined, PK/LDH: pyruvate kinase and lactate dehydrogenase, Pf: Plasmodium falciparum, Ec: Escherichia coli.
Figure S7. The HRMS recorded for the samples submitted to the enzyme assay after 3 months of decomposition with the corresponding colour differences. […]
2.4 Solvent-Dependent Study
As in the Section 2.3, stock solutions of compound 1 were prepared in DMSO, ACN and MeOH and stored at RT for 16 days in a box protected from light . Samples were collected during this time and the enzymatic activity was analysed for them as in main text, Table […]
compound 1 for ACN or MeOH was detectible (Figures S11–12). Similarly, the old samples of compound 1 used for enzyme and cell assays were analysed with HRMS (Figure S13). Additionally, NMR sample in MeOH was prepared and measured over time while stored at RT. As a follow-up experiment, the stability of compound 1 was determined for its 10 mM stock solution in Tris-HCl (pH 7.6) with and without 5% DMSO and Cyrene™ with HRMS (Figure S16–18). […]

Data set [5] concerns the target PK/LDH (pyruvate kinase and lactate dehydrogenase). The data set can be described thus: PK/LDH auxiliary enzyme assay. Conditions: SFC-separated compound, dissolved in methanol shortly before the assay. The data set is classed as biochemical. As to the method:
as §2, §4, §5, §1, §6, §7, §8
Low resolution mass analytics and purity controls were carried out using an Ultimate 3000-ISQ liquid-chromatography mass spectrometry (LCMS) system (Thermo Fisher Scientific, Dreieich, Germany) consisting of a Dionex UltiMate pump, an autosampler, DAD detector and an ESI quadrupole mass spectrometer. NMR spectra were recorded on a Bruker AV 500 or Ascend 700 (1H, 500 MHz or 700 MHz; 13C, 126 MHz or 175 MHz; 19F, 470 MHz) spectrometer. All spectra were measured in DMSO -d6, methanol-d4, acetone-d6 or acetonitrile-d3 to which reported

[6] abbreviates: fractions of second purification (DMSO, RT, five days), dissolved in ACN.
Setting [7] is: fractions of second purification (DMSO, RT, five days), dissolved in MeOH.

T1 sequence (P62615 whole entry): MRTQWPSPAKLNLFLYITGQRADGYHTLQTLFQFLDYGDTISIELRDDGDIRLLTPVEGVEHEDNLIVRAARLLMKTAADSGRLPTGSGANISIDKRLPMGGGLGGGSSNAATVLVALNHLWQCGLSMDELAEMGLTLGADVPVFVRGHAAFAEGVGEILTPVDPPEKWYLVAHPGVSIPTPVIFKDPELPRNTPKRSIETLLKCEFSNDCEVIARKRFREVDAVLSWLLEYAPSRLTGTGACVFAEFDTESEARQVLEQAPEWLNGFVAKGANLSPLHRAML
Chain of PfIspE (Q8I470 entry or part of it): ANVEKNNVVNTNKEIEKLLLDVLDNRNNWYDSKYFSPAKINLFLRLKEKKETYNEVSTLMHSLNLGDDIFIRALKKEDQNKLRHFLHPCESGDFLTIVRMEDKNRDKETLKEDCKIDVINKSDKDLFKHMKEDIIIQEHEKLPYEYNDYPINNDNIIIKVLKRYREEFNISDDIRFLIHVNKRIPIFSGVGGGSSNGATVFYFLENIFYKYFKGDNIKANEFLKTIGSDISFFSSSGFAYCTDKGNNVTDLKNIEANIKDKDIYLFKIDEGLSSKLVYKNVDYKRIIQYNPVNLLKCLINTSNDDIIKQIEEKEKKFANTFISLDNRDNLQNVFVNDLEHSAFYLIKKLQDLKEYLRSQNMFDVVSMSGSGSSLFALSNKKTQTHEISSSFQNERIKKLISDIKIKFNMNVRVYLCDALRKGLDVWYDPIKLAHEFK

For the compound `CCN(CC)CCCC(C)Nc1ccnc2cc(Cl)ccc12` (centres unmarked) [Chloroquine, reference compound], the IC50 (commonly the concentration that gives 50% inhibition) in data set [1] (NF54, read-out: PfNF54 IC50) came out at 3.1 ± 0.8 ng/mL.
On to `CCn1c(C)cc(-c2csc(Nc3ccccc3OC)n2)c1C` [Compound 2, 4-(1-Ethyl-2,5-dimethyl-1H-pyrrol-3-yl)-N-(2-methoxyphenyl)thiazol-2-amine], for which the IC50 in data set [2] (first screening, from a single measurement, not reproducible later) was 191 µM; in data set [2] (setting [6]), above 1530 µM; in data set [2] (setting [7]), above 1530 µM; in data set [2] (fresh batch, freshly prepared stock solution) it was above 500 µM; in data set [3] (dissolved in ACN), above 1530 µM; in data set [3] (dissolved in MeOH) it was above 1530 µM. In data set [4], the “decomposition in DMSO at RT: dimerisation (HRMS, in words)” value (“decomposition in DMSO at RT” for short) is “dimerising mainly into the predicted N−N dimers”.
Turning to `C=CCn1c(C)cc(-c2csc(Nc3ccccc3C(C)C)n2)c1C` [Compound 3, 4-(1-Allyl-2,5-dimethyl-1H-pyrrol-3-yl)-N-(2-isopropylphenyl)thiazol-2-amine], the IC50 in data set [2] (setting [6]), in data set [2] (setting [7]), in data set [3] (dissolved in ACN) and in data set [3] (dissolved in MeOH) was above 1420 µM each time. For the same compound, the “decomposition in DMSO at RT” value in data set [4] is “dimerising mainly into the predicted N−N dimers”.
On to `Cc1cc(-c2csc(Nc3ccccc3C(F)(F)F)n2)c(C)n1CC1CCCO1` (centres unmarked) [Compound 4, 4-(2,5-Dimethyl-1-((tetrahydrofuran-2-yl)methyl)-1H-pyrrol-3-yl)-N-(2-(trifluoromethyl)phenyl)thiazol-2-amine], for which the half-inhibitory concentration (IC50) in data set [2] (fractions of first prep. HPLC purification (DMSO, RT, 2.5 weeks), dissolved in DMSO as 1 mg/mL) is above 1190 µM; in data set [2] (setting [6]), above 1190 µM; in data set [2] (setting [7]), 112 µM; in data set [3] (dissolved in ACN), above 1190 µM; in data set [3] (dissolved in MeOH), 292 µM. For the same compound, the “decomposition in DMSO at RT” value in data set [4] is “no dimerisation”.
As to `CCn1c(C)cc(-c2csc(N(c3ccccc3C(F)(F)F)N(C3=NC(=C4C=C(C)[N+](CC)=C4C)CS3)c3ccccc3C(F)(F)F)n2)c1C` [DP2], the IC50 in data set [2] (SFC-separated compound, dissolved in methanol shortly before the assay) is 59 ± 4 µM; in data set [1] (NF54, 72 h, SFC-separated compound, dissolved in methanol shortly before the assay, 72 hours, highest concentration tested 20 μM, read-out: PfNF54 IC50) it was 2.1 ± 0.2 µM; in data set [5] it was 37 ± 4 µM.
As to `C[C@H]1[C@H](OC(=O)CCC(=O)O)O[C@@H]2O[C@@]3(C)CC[C@H]4[C@H](C)CC[C@@H]1[C@@]24OO3` [artesunate, reference compound], the 50% inhibitory concentration (IC50) in data set [1] (NF54, controls of the antimalarial assay, read-out: PfNF54 IC50) worked out at 4 ± 1.7 ng/mL.
